In US20240409584A1, “PEPTIDE HAVING ANTI-AGING ACTIVITY, AND USE THEREOF” (CAREGEN CO., LTD., priority 2021, published 2024):

What was measured:
MMP-2 = MMP-2 activity increased by UV in fibroblasts, gelatin zymography; type: cell-based, mouse; conditions: fibroblasts (NIH3T3), 6 J/cm^2 UVA, peptide 10, 50, 100 μM, 6 hours after irradiation; FIG. 6A
fibronectin [1] = test: Fibronectin gene expression in fibroblasts, RT-PCR; type: cell-based, mouse; conditions: NIH3T3 cells, peptide 10, 50, 100 μM, 24 hours, serum free DMEM; FIGS. 1A, 1C
Description: (§1) First, NIH3T3 cells (mouse fibroblast cell line) were seeded in a 6-well plate at a cell density of 3×10^5 cell/well, and then the cells were cultured in DMEM medium containing 10% fetal bovine serum (FBS) for 24 hours. The cultured cells were washed once with serum free DMEM medium, and the peptide of the present invention was mixed in 1 mL of the serum free DMEM medium at each of concentrations of 10, 50, and 100 μM, and dispensed into the cells. A positive control (PC) was treated with 5 ng/ml of TGF-B instead of the above peptide. The cells were cultured in a CO: incubator at 37° C. for 24 hours.
(§2) The cultured cells were washed twice with PBS, and RNA was extracted from the cells using easy blue (iNtRON, Cat. No.: 17061, Korea). The amount of RNA extracted was quantified, 1, 000 ng of RNA was added per tube, and RT reaction was performed using a kit (enzynomics, Cat. No.: PT200, Korea). RT-PCR was performed using a PCR kit (enzynomics, Cat. No.: P581T, Korea). The sequences of the primers of collagen, fibronectin, and elastin used in RT-PCR and the sequence of the primer of GAPDH used to compare the total RNA amount of each treatment group are shown in [Table 2].

MMP-1 [2] = test: MMP-1 expression increased by UV in keratinocytes, western blot; type: cell-based; conditions: HaCaT cells, 15 mJ/cm^2 UVB, peptide 10, 50, 100 μM, 24 hours after irradiation; FIG. 5B
Description: as §1, with “and HaCaT cells” for “(mouse fibroblast cell line)”, “5×10^5” for “3×10^5”, “cell/well, respectively,” for “cell/well,”, “25 and 50 µM” for “5 ng/ml”, “Trolox” for “TGF-B”, “peptide.” for “peptide. The cells were cultured in a CO: incubator at 37° C. for 24 hours.”
(§3) The cells were cultured in a CO2 incubator at 37° C. for 1 hour. The medium of the cultured cells was transferred to a tube (e-tube), 1 ml of PBS was added, and then the NIH3T3 cells were irradiated with 6 J/cm^2 of UVA and the HaCaT cells were irradiated with 15 mJ/cm^2 of UVB using a UV irradiator (VILBER LOURMAT, Cat No.: 3102-BSU, France). After removing PBS, 900 μL of the medium transferred to the tube was added, and culture was performed in a CO2 incubator at 37° C. for 24 hours. The medium of the cultured cells was transferred to a tube, the cells were washed twice with PBS, and then a cell lysis buffer was added to lyse the cells. A sample was prepared by treating the cells with 5× sample buffer, and then SDS-PAGE was performed using 10% SDS-PAGE gel. The proteins isolated through SDS-PAGE were transferred to a PVDF membrane. […]

SIRT1 = SIRT1 gene expression in keratinocytes, RT-PCR; type: cell-based; conditions: HaCaT cells, peptide 10, 50, 100 μM, 24 hours; FIGS. 2A, 2C
Description: (§4) First, HaCaT cells were seeded in a 6-well plate at a cell density of 3×10^5 cell/well, and then the cells were cultured in DMEM medium containing 10% fetal bovine serum (FBS) for 24 hours. The cultured cells were washed once with serum free DMEM medium, and then the peptide of the present invention was mixed in 1 mL of the serum free DMEM medium at each of concentrations of 10, 50, and 100 μM, and dispensed into the cells. A positive control (PC) was treated with 100 nM of EGF instead of the above peptide. The cells were cultured in a CO: incubator at 37° C. for 24 hours.
(§5) The cultured cells were washed twice with PBS, and then RNA was extracted from the cells using easy blue (iNtRON, Cat. No.: 17061, Korea). The extracted RNA was subjected to RT reaction using a kit (enzynomics, Cat. No.: RT200, Korea). Thereafter, RT-PCR was performed using a PCR kit (enzynomics, Cat. No.: R581T, Korea). The sequences of the primers of AQP3 and SIRT1 used in RT-PCR and the sequence of the primer of GAPDH used to compare the total RNA amount of each treatment group are shown in [Table 2].

HaCaT cells = test: Intracellular ROS increased by UVB irradiation, DCFH-DA/FACS; type: cell-based; conditions: 15 mJ/cm^2 UVB, peptide 10, 50, 100 μM, 24 hours after irradiation, FIG. 3B
Description: as §4, with “First, NIH3T3 cells and” for “First,”, “5×10^5” for “3×10^5”, “cell/well, respectively,” for “cell/well,”, “50 μM” for “100 nM”, “Trolox” for “EGF”, “peptide.” for “peptide. The cells were cultured in a CO: incubator at 37° C. for 24 hours.”
(§6) The cells were cultured in a CO2 incubator at 37° C. for 1 hour. The medium of the cultured cells was transferred to a tube, 1 ml of PBS was added, and then the NIH3T3 cells were irradiated with 8 J/cm^2 of UVA and the HaCaT cells were irradiated with 15 mJ/cm^2 of UVB using a UV irradiator (VILBER LOURMAT, Cat No.: 3102-BSU, France). After removing PBS, 900 μL of the medium transferred to the tube was dispensed, and culture was performed in a CO2 incubator at 37° C. for 24 hours. After treatment with 10 μM of dichloro-dihydro-fluorescein diacetate (DCFH-DA), wrapping with a foil was performed, and culture was performed in a CO2 incubator at 37° C. for 30 minutes. […] After centrifugation, the cells were washed with PBS, and a fluorescence value was measured through FACS.

Col1a1 = Col1a1 (collagen) gene expression in fibroblasts, RT-PCR; type: cell-based, mouse; conditions: NIH3T3 cells, peptide 10, 50, 100 μM, 24 hours, serum free DMEM; FIGS. 1A, 1B
Description: as §1, §2

Colla1 = test: Col1a1 gene expression decreased by UV in fibroblasts, RT-PCR; type: cell-based, mouse; conditions: NIH3T3 cells, 6 J/cm^2 UVA, peptide 10, 50, 100 μM, 6 hours after irradiation; FIGS. 4A, 4B
Description: (§7) First, NIH3T3 cells were seeded in a 6-well plate at a cell density of 5×10^5 cell/well, and then the cells were cultured in DMEM medium containing 10% fetal bovine serum (FBS) for 24 hours. The cultured cells were washed once with serum free DMEM medium, and then the peptide of the present invention was mixed in 1 mL of the serum free DMEM medium at each of concentrations of 10, 50, and 100 μM, and dispensed into the cells. A positive control (PC) was treated with 2.5 mM of N-acetylcysteine or 50 μM of Trolox instead of the above peptide. The cells were cultured in a CO: incubator at 37° C. for 1 hour.
(§8) The medium of the cultured cells was transferred to a tube (e-tube), 1 ml of PBS was added, and irradiation was performed with 6 J/cm^2 of UVA using a UV irradiator (VILBER LOURMAT, Cat No.: 3102-BSU, France). After removing PBS, 900 μL of the medium transferred to the tube was dispensed, and culture was performed in a CO2 incubator at 37° C. for 6 hours. The cultured cells were washed twice with PBS, and then RNA was extracted from the cells using easy blue (iNtRON, Cat. No.: 17061, Korea). The amount of RNA extracted was quantified, 1,000 ng of RNA was added per tube, and RT reaction was performed using a kit (enzynomics, Cat. No.: RT200, Korea). Thereafter, RT-PCR was performed using a PCR kit (enzynomics, Cat. No.: R581T, Korea). […]

NIH3T3 cells = test: Intracellular ROS increased by UVA irradiation, DCFH-DA/FACS; type: cell-based, mouse; conditions: 8 J/cm^2 UVA, peptide 10, 50, 100 μM, 24 hours after irradiation, FIG. 3A
Description: as §7, with “NIH3T3 cells and HaCaT” for “NIH3T3”, “cell/well, respectively,” for “cell/well,”, “with” for “with 2.5 mM of N-acetylcysteine or”, “peptide.” for “peptide. The cells were cultured in a CO: incubator at 37° C. for 1 hour.”
as §6

fibronectin [3] = test: Fibronectin gene expression decreased by UV in fibroblasts, RT-PCR; type: cell-based, mouse; conditions: NIH3T3 cells, 6 J/cm^2 UVA, peptide 10, 50, 100 μM, 6 hours after irradiation; FIGS. 4A, 4C
Description: as §7, §8

MMP-1 [4] = test: MMP-1 expression increased by UV in fibroblasts, western blot; type: cell-based, mouse; conditions: NIH3T3 cells, 6 J/cm^2 UVA, peptide 10, 50, 100 μM, 24 hours after irradiation; FIG. 5A
Description: First, NIH3T3 cells and HaCaT cells were seeded in a 6-well plate at a cell density of 5×10^5 cell/well, respectively, and then the cells were cultured in DMEM medium containing 10% fetal bovine serum (FBS) for 24 hours. The cultured cells were washed once with serum free DMEM medium, and the peptide of the present invention was mixed in 1 mL of the serum free DMEM medium at each of concentrations of 10, 50, and 100 μM, and dispensed into the cells. A positive control (PC) was treated with 25 and 50 µM of Trolox instead of the above peptide.
as §3

AQP3 = AQP3 gene expression in keratinocytes, RT-PCR; type: cell-based; conditions: HaCaT cells, peptide 10, 50, 100 μM, 24 hours; FIGS. 2A, 2B
Description: as §4, §5

MMP-9 = MMP-9 activity increased by UV in keratinocytes, gelatin zymography; type: cell-based; conditions: keratinocytes (HaCaT), 15 mJ/cm^2 UVB, peptide 10, 50, 100 μM, 6 hours after irradiation; FIG. 6B
elastin = test: Elastin gene expression in fibroblasts, RT-PCR; type: cell-based, mouse; conditions: NIH3T3 cells, peptide 10, 50, 100 μM, 24 hours, serum free DMEM; FIGS. 1A, 1D
Description: as §1, §2

Q: What does the source list for DSSPLRSPSYAS [SEQ ID NO: 1]?
A: activity of MMP-2 protein increased by ultraviolet rays (MMP-2): inhibited; expression of the fibronectin gene (fibronectin [1]): gradually increased as a concentration of the peptide increased; expression of MMP-1 increased by UV irradiation (MMP-1 [2]): inhibited; mRNA level of SIRT1 (SIRT1): increased; intracellular reactive oxygen species level increased by UV irradiation (HaCaT cells): decreased; expression of the collagen gene (Col1a1): gradually increased as a concentration of the peptide increased; mRNA level of Colla1 decreased by UV irradiation (Colla1): increased again; intracellular reactive oxygen species level increased by UV irradiation (NIH3T3 cells): decreased; mRNA level of fibronectin decreased by UV irradiation (fibronectin [3]): increased again; expression of MMP-1 increased by UV irradiation (MMP-1 [4]): inhibited; mRNA level of AQP3 (AQP3): increased; activity of MMP-9 protein increased by ultraviolet rays (MMP-9): inhibited; expression of the elastin gene (elastin): gradually increased as a concentration of the peptide increased
